Laboratory results reported in PubChem BioAssay (NCI).
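Compound exposure: 48 hours, 5 concentrations, 96-well plates. At the GI50, growth is halved. At the TGI there is no net growth.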

How the values were obtained:
Assay in all cases: DTP human tumour cell line panel, 48 h
[1] = tested on: SNB-75 CNS
[2] = tested on: RPMI-8226 leukemia
[3] = tested on: MALME-3M melanoma
[4] = tested on: SF-295 CNS
[5] = tested on: COLO 205 colon
[6] = tested on: CAKI-1 renal
[7] = tested on: HOP-62 NSCLC
[8] = tested on: A549 NSCLC
[9] = tested on: DU-145 prostate
[10] = tested on: A498 renal

SMILES: FC(F)(F)c1ccc(-c2ncc(-c3ccc(C(F)(F)F)cc3)c(NCc3cc(C(F)(F)F)cc(C(F)(F)F)c3)n2)cc1
- GI50 [1]: 4.17 µM
- TGI [1]: 73 µM
- GI50 [2]: 4.24 µM
- TGI [2]: 35.3 µM
- GI50 [3]: 6.44 µM
- TGI [3]: 46.3 µM
- GI50 [4]: 2.94 µM
- TGI [4]: 28.3 µM
- GI50 [5]: 2.34 µM
- TGI [5]: 6.09 µM
- GI50 [6]: 3.36 µM
- TGI [6]: 28 µM
- GI50 [7]: 5.16 µM
- TGI [7]: > 100 µM
- GI50 [8]: 4.05 µM
- TGI [8]: > 100 µM
- GI50 [9]: 5.25 µM
- TGI [9]: > 100 µM
- GI50 [10]: 2.31 µM
- TGI [10]: 8.75 µM

SMILES: NC(=N\N=C/c1ccc(Cl)cc1Cl)/C(N)=N\N=C/c1ccc(Cl)cc1Cl
- GI50 [1]: 1.65 µM
- TGI [1]: 13.4 µM
- GI50 [2]: > 100 µM
- TGI [2]: > 100 µM
- GI50 [3]: 41.3 µM
- TGI [3]: > 100 µM
- GI50 [4]: 2.84 µM
- TGI [4]: 89.8 µM
- GI50 [5]: 46.2 µM
- TGI [5]: > 100 µM
- GI50 [6]: 16.3 µM
- TGI [6]: > 100 µM
- GI50 [7]: 15.1 µM
- TGI [7]: 38.7 µM
- GI50 [8]: 5.99 µM
- TGI [8]: > 100 µM
- GI50 [9]: > 100 µM
- TGI [9]: > 100 µM
- GI50 [10]: 2.21 µM
- TGI [10]: 8.37 µM

SMILES: FC(F)(F)c1cc(-c2ncn(/C=C\c3nnco3)n2)cc(C(F)(F)F)c1
- GI50 [1]: 0.106 µM
- TGI [1]: 3.65 µM
- GI50 [2]: 0.0336 µM
- TGI [2]: 15.6 µM
- GI50 [3]: 0.102 µM
- TGI [3]: 0.734 µM
- GI50 [4]: 0.0634 µM
- TGI [4]: > 43.3 µM
- GI50 [5]: 0.055 µM
- TGI [5]: 14 µM
- GI50 [6]: 0.0497 µM
- TGI [6]: > 38.9 µM
- GI50 [7]: 0.282 µM
- TGI [7]: 28.3 µM
- GI50 [8]: 0.0586 µM
- TGI [8]: > 42.3 µM
- GI50 [9]: 0.315 µM
- TGI [9]: 22 µM
- GI50 [10]: < 0.0128 µM
- TGI [10]: 0.0639 µM

SMILES: CCOc1cc(/C=C/C(=O)C(C(=O)/C=C/c2ccc(OC(=O)CNc3nnc(C)s3)c(OCC)c2)C(=O)CNc2nnc(C)s2)ccc1OC(=O)CNc1nnc(C)s1
- GI50 [1]: 2.93 µM
- TGI [1]: 9.77 µM
- GI50 [2]: 0.34 µM
- TGI [2]: > 100 µM
- GI50 [3]: 2.36 µM
- TGI [3]: 7.09 µM
- GI50 [4]: 3.08 µM
- TGI [4]: 10.7 µM
- GI50 [5]: 1.7 µM
- TGI [5]: 3.54 µM
- GI50 [6]: 2.8 µM
- TGI [6]: > 29 µM
- GI50 [7]: 3.52 µM
- TGI [7]: 11.8 µM
- GI50 [8]: 2.36 µM
- TGI [8]: 7.44 µM
- GI50 [9]: 1.72 µM
- TGI [9]: 4.18 µM
- GI50 [10]: 1.8 µM
- TGI [10]: 3.64 µM

SMILES: O=C(O)c1ccc(C(=O)O)c(C(=O)O)c1.[NH-]C1CCCCC1[NH-].[Pt+2]
- GI50 [1]: 18 µM
- TGI [1]: 78.9 µM
- GI50 [2]: 0.581 µM
- TGI [2]: 48.9 µM
- GI50 [3]: 1.67 µM
- TGI [3]: 22.8 µM
- GI50 [4]: 5.52 µM
- TGI [4]: 68.6 µM
- GI50 [5]: 3.73 µM
- TGI [5]: 40.7 µM
- GI50 [6]: 1.86 µM
- TGI [6]: 32.7 µM
- GI50 [7]: 11.7 µM
- TGI [7]: > 74.4 µM
- GI50 [8]: 1.87 µM
- TGI [8]: 39 µM
- GI50 [9]: 11.1 µM
- TGI [9]: 84.1 µM
- GI50 [10]: 6.28 µM
- TGI [10]: 45.1 µM

SMILES: O=C1C=CC(=O)N1c1ccc(I)cc1
- TGI [1]: 44.1 µM
- TGI [2]: 22.1 µM
- TGI [3]: 33.1 µM
- TGI [4]: 55.5 µM
- TGI [5]: 13.9 µM
- TGI [6]: 34.3 µM
- TGI [7]: 38.2 µM
- TGI [8]: 47 µM
- TGI [9]: 38 µM
- TGI [10]: 39.2 µM

SMILES: Cc1cc(=O)oc2cc(OC(=O)Nc3ccccc3)ccc12
- TGI [1]: > 100 µM
- TGI [2]: 62.4 µM
- TGI [3]: > 100 µM
- TGI [4]: > 100 µM
- TGI [5]: > 100 µM
- TGI [6]: > 100 µM
- TGI [7]: > 100 µM
- TGI [8]: > 100 µM
- TGI [9]: > 100 µM
- TGI [10]: > 100 µM

SMILES: CCCCCCc1cc2cc(-c3csc(/C=C/c4ccccc4)n3)c(=O)oc2cc1O
- GI50 [1]: 11.5 µM
- TGI [1]: 26.5 µM
- GI50 [2]: 4.84 µM
- TGI [2]: 19.7 µM
- GI50 [3]: 14.7 µM
- TGI [3]: 34.6 µM
- GI50 [4]: 13.1 µM
- TGI [4]: 27.2 µM
- GI50 [5]: > 100 µM
- TGI [5]: > 100 µM
- GI50 [6]: 19 µM
- TGI [6]: 48.5 µM
- GI50 [7]: 7.16 µM
- TGI [7]: 21.4 µM
- GI50 [8]: 4.27 µM
- TGI [8]: 19 µM
- GI50 [9]: 12.8 µM
- TGI [9]: 44.7 µM
- GI50 [10]: 14.4 µM
- TGI [10]: 30.5 µM

SMILES: COc1ccc(/C=C/C(=O)c2ccc(Nc3nc(Nc4ccc(F)cc4)nc(Nc4ccc(Cl)cc4)n3)cc2)cc1
- GI50 [1]: 16.2 µM
- TGI [1]: 45.8 µM
- GI50 [2]: 6.91 µM
- TGI [2]: > 100 µM
- GI50 [3]: > 100 µM
- TGI [3]: > 100 µM
- GI50 [4]: > 100 µM
- TGI [4]: > 100 µM
- GI50 [5]: 24.2 µM
- TGI [5]: > 100 µM
- GI50 [6]: 69.6 µM
- TGI [6]: > 100 µM
- GI50 [7]: > 100 µM
- TGI [7]: > 100 µM
- GI50 [8]: > 100 µM
- TGI [8]: > 100 µM
- GI50 [9]: > 100 µM
- TGI [9]: > 100 µM
- GI50 [10]: > 100 µM
- TGI [10]: > 100 µM

SMILES: O=C(Cc1ccc(Nc2ccnc(C(F)(F)F)c2)cc1)N/N=C/c1ccccc1O
- GI50 [1]: 4.81 µM
- TGI [1]: 79.3 µM
- GI50 [2]: 0.824 µM
- TGI [2]: 16.2 µM
- GI50 [3]: 4.07 µM
- TGI [3]: > 38.4 µM
- GI50 [4]: 2.72 µM
- TGI [4]: 38 µM
- GI50 [5]: 4.33 µM
- TGI [5]: 22.8 µM
- GI50 [6]: 1.35 µM
- TGI [6]: 13 µM
- GI50 [7]: 3.08 µM
- TGI [7]: > 48.6 µM
- GI50 [8]: 4.49 µM
- TGI [8]: > 100 µM
- GI50 [9]: 3.17 µM
- TGI [9]: > 58.1 µM
- GI50 [10]: 11.2 µM
- TGI [10]: > 57.9 µM

SMILES: Cc1cc(C(O)(c2ccc(Nc3ccccc3)cc2)c2ccc(Nc3ccc(S(=O)(=O)O)cc3)cc2)ccc1N (stereo not drawn)
- GI50 [1]: 1.29 µM
- TGI [1]: 30.9 µM
- GI50 [2]: 0.571 µM
- TGI [2]: 2.99 µM
- GI50 [3]: 1.58 µM
- TGI [3]: 3.11 µM
- GI50 [4]: 1.69 µM
- TGI [4]: 3.25 µM
- GI50 [5]: 0.782 µM
- TGI [5]: 2.8 µM
- GI50 [6]: 2.24 µM
- TGI [6]: 9.14 µM
- GI50 [7]: 2.27 µM
- TGI [7]: 4.65 µM
- GI50 [8]: 1.55 µM
- TGI [8]: 3.25 µM
- GI50 [9]: 1.32 µM
- TGI [9]: 2.67 µM
- GI50 [10]: 1.58 µM
- TGI [10]: 3.51 µM

SMILES: CCC(C)(C)[C@H](NC(=O)[C@H]1CCCCN1C)C(=O)N(C)[C@H](C[C@@H](OC(C)=O)c1nc(C(=O)N[C@@H](Cc2ccccc2)C[C@H](C)C(=O)O)cs1)C(C)C
- GI50 [1]: < 0.00167 µM
- TGI [1]: > 16.7 µM
- GI50 [2]: < 0.00167 µM
- TGI [2]: > 16.7 µM
- GI50 [3]: < 0.00167 µM
- TGI [3]: > 16.7 µM
- GI50 [4]: < 0.00167 µM
- GI50 [5]: < 0.00167 µM
- TGI [5]: 0.00277 µM
- GI50 [6]: < 0.00167 µM
- TGI [6]: > 16.7 µM
- GI50 [7]: < 0.00167 µM
- TGI [7]: > 16.7 µM
- GI50 [8]: < 0.00167 µM
- TGI [8]: > 16.7 µM
- GI50 [9]: < 0.00167 µM
- GI50 [10]: < 0.00167 µM
- TGI [10]: 0.0113 µM
